Measured values: patent EP0326331B1, “Substituted quinolines and cinnolines” (Dow AgroSciences LLC, priority 1988, dated 1989)
Like-named read-outs stand apart in the source and are kept apart here.

Legend:
Format in all cases: in vivo
[1] = system: Erysiphe graminis tritici (powdery mildew); assay: Test 1 greenhouse foliar spray screen, powdery mildew on wheat; details: for POWD MDEW: disease control rating, foliar spray on wheat, 400 ppm (+++ at 100 ppm); for pest or weed control at 400 ppm: Blumeria graminis, foliar, Test 1, foliar spray on wheat, disease control rating at 400 ppm / 100 ppm, read-out: POWD MDEW
[2] = system: Pyricularia oryzae (rice blast); assay: whole plant or invertebrate; details: for RICE BLAST: disease control rating, foliar spray on rice, 400 ppm (+++ at 100 ppm); for pest or weed control at 400 ppm: Pyricularia oryzae, foliar, read-out: RICE BLAST, Test 1, foliar spray on rice, disease control rating at 400 ppm / 100 ppm
[3] = system: Puccinia recondita tritici (leaf rust); assay: Test 1 greenhouse foliar spray screen, leaf rust on wheat; details: for LEAF RUST: disease control rating, foliar spray on wheat, 400 ppm (+++ at 100 ppm); for pest or weed control at 400 ppm: Puccinia recondita, foliar, Test 1, foliar spray on wheat, disease control rating at 400 ppm / 100 ppm
[4] = system: Botrytis cinerea (gray mold); assay: Test 1 greenhouse foliar spray screen, gray mold on grape berries; details: for GRAY MOLD: disease control rating, spray on grape berries, 400 ppm (+++ at 100 ppm); for pest or weed control at 400 ppm: Botrytis cinerea, foliar, Test 1, spray on grape berries, disease control rating at 400 ppm / 100 ppm
[5] = system: Pseudoperonospora cubensis (downy mildew); assay: Test 1 greenhouse foliar spray screen, downy mildew on squash; details: for DOWN MDEW: disease control rating, foliar spray on squash, 400 ppm (+++ at 100 ppm); for pest or weed control at 400 ppm: Pseudoperonospora cubensis, foliar, Test 1, foliar spray on squash, disease control rating at 400 ppm / 100 ppm, read-out: DOWN MDEW
[6] = system: Venturia inaequalis (apple scab); assay: Test 1 greenhouse foliar spray screen, apple scab on apple seedling; details: disease control rating, foliar spray on apple seedling, 400 ppm (+++ at 100 ppm)
[7] = system: Septoria tritici (leaf blotch); assay: Test 1 greenhouse foliar spray screen, leaf blotch on wheat; details: disease control rating, foliar spray on wheat, 400 ppm (+++ at 100 ppm)
[8] = system: southern armyworm (Spodopetra eridania Cramer); assay: Mite/insect screen, SAW; details: Spodoptera eridania, percent mortality, read-out: SAW RESULTS %; for mortality at 400 ppm: rate 400 ppm
How it was run: (§1)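 Activity is expressed as percent mortality at the indicated spray concentrations. Plants are sprayed to runoff on upper and lower leaf surfaces with aqueous dilutions of an acetone/alcohol emulsifiable formulation, then dried for one hour.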

[9] = system: Twospotted spider mites (Tetranychus urticae Koch); assay: Mite/insect screen, SM; details: Tetranychus urticae, percent mortality, read-out: SM RESULTS %; for mortality at 400 ppm: rate 400 ppm
How it was run: as §1

[10] = system: melon aphids (Aphis gossypii Glover); assay: Mite/insect screen, MA; details: Aphis gossypii, percent mortality, read-out: MA RESULTS %; for mortality at 400 ppm: rate 400 ppm
How it was run: as §1

corn rootworm = assay: Mite/insect screen, CRW; details: percent mortality, read-out: CRW RESULTS %; for mortality at 24 ppm: CRW rate 24.00 ppm
How it was run: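 Each compound, taken up in an emulsifier-containing acetone/alcohol mixture and diluted in water to the stated concentrations, was assessed for percent kill following standard exposure times.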

[11] = foliar, rate 200 ppm, foliar spray on squash

Row | SMILES | POWD MDEW [1] | RICE BLAST [2] | LEAF RUST [3] | GRAY MOLD [4] | DOWN MDEW [5] | APPL SCAB [6] | LEAF BLOT [7] | mortality at 200 ppm ([8]; SAW, SM & MA RATE 200 PPM) [%] | mortality at 200 ppm ([9]; SAW, SM & MA RATE 200 PPM) [%] | mortality at 200 ppm ([10]; SAW, SM & MA RATE 200 PPM) [%] | mortality at 12 ppm (corn rootworm; CRW RATE 12.00 PPM) [%] | also measured
1 | COc1ccc2nccc(NCCc3ccccc3)c2c1 [Example 1, 6-methoxy-N-(2-phenylethyl)-4-quinolineamine] | + (20-89% control at 400 ppm) | + (20-89% control at 400 ppm) | + (20-89% control at 400 ppm) | + (20-89% control at 400 ppm) | ++ (90-100% control at 400 ppm) | - (0-19% control at 400 ppm) | - (0-19% control at 400 ppm) | 0 | 0 | 0 | 0 | –
2 | CCc1ccc2nccc(NCCc3ccccc3)c2c1 [Example 3, 6-ethyl-N-(2-phenylethyl)-4-quinolinamine] | - (0-19% control at 400 ppm) | ++ (90-100% control at 400 ppm) | + (20-89% control at 400 ppm) | - (0-19% control at 400 ppm) | +++ (90-100% control at 100 ppm) | - (0-19% control at 400 ppm) | - (0-19% control at 400 ppm) | 0 | 0 | 0 | 0 | –
3 | CCN(CCc1ccccc1)c1ccnc2ccccc12 [Example 4, N-ethyl-N-(2-phenylethyl)-4-quinolinamine] | + (20-89% control at 400 ppm) | + (20-89% control at 400 ppm) | ++ (90-100% control at 400 ppm) | - (0-19% control at 400 ppm) | ++ (90-100% control at 400 ppm) | - (0-19% control at 400 ppm) | - (0-19% control at 400 ppm) | 0 | 0 | 0 | 0 | –
4 | Cc1cc(NCCc2ccccc2)c2ccccc2n1 [Example 6, 2-methyl-N-(2-phenylethyl)-4-quinolinamine] | ++ (90-100% control at 400 ppm) | + (20-89% control at 400 ppm) | + (20-89% control at 400 ppm) | + (20-89% control at 400 ppm) | ++ (90-100% control at 400 ppm) | - (0-19% control at 400 ppm) | - (0-19% control at 400 ppm) | 0 | 0 | 0 | 0 | –
5 | FC(F)(F)c1ccc2c(NCCc3ccccc3)ccnc2c1 [Example 17, N-(2-phenylethyl)-7-(trifluoromethyl)-4-quinolinamine] | ++ (90-100% control at 400 ppm) | + (20-89% control at 400 ppm) | ++ (90-100% control at 400 ppm) | - (0-19% control at 400 ppm) | ++ (90-100% control at 400 ppm) | - (0-19% control at 400 ppm) | - (0-19% control at 400 ppm) | 0 | 0 | 0 | 0 | –
6 | Brc1ccc(CCNc2ccnc3ccccc23)cc1 [Example 18, N-[2-(4-bromophenyl)ethyl]-4-quinolinamine] | + (20-89% control at 400 ppm) | ++ (90-100% control at 400 ppm) | ++ (90-100% control at 400 ppm) | + (20-89% control at 400 ppm) | ++ (90-100% control at 400 ppm) | - (0-19% control at 400 ppm) | - (0-19% control at 400 ppm) | 0 | 0 | 0 | 0 | –
7 | Cc1ccc(CCNc2ccnc3ccccc23)cc1 [Example 19, N-[2-(4-methylphenyl)ethyl]-4-quinolinamine] | + (20-89% control at 400 ppm) | ++ (90-100% control at 400 ppm) | ++ (90-100% control at 400 ppm) | - (0-19% control at 400 ppm) | +++ (90-100% control at 100 ppm) | - (0-19% control at 400 ppm) | - (0-19% control at 400 ppm) | 0 | 0 | 0 | 0 | –
8 | Clc1ccc(CCNc2ccnc3ccccc23)cc1 [Example 20, N-[2-(4-chlorophenyl)ethyl]-4-quinolinamine] | + (20-89% control at 400 ppm) | + (20-89% control at 400 ppm) | + (20-89% control at 400 ppm) | - (0-19% control at 400 ppm) | +++ (90-100% control at 100 ppm) | - (0-19% control at 400 ppm) | - (0-19% control at 400 ppm) | 0 | 0 | 0 | 0 | –
9 | CC(CNc1ccnc2ccccc12)c1ccccc1 (stereo not drawn) [Example 21, N-(2-phenylpropyl)-4-quinolinamine] | + (20-89% control at 400 ppm) | + (20-89% control at 400 ppm) | + (20-89% control at 400 ppm) | - (0-19% control at 400 ppm) | ++ (90-100% control at 400 ppm) | - (0-19% control at 400 ppm) | - (0-19% control at 400 ppm) | 0 | 0 | 0 | 0 | –
10 | Oc1ccc(CCNc2ccnc3c(F)cccc23)cc1 [Example 293, N-[2-(4-hydroxyphenyl)ethyl]-8-fluoro-4-quinoline] | – | – | – | – | – | – | – | – | – | – | – | pest or weed control at 400 ppm [1]: 0 to 19%; pest or weed control at 400 ppm [2]: 0 to 19%; pest or weed control at 400 ppm [3]: 90 to 100%; pest or weed control at 400 ppm [4]: 0 to 19%; pest or weed control at 400 ppm [5]: 0 to 19%; mortality at 200 ppm [8, 11]: 0%; mortality at 400 ppm ([8]; foliar, foliar spray on squash): 0%; mortality at 200 ppm [9, 11]: 0%; mortality at 400 ppm ([9]; foliar, foliar spray on squash): 0%; mortality at 200 ppm [10, 11]: 0%; mortality at 400 ppm ([10]; foliar, foliar spray on squash): 0%; mortality at 12 ppm (corn rootworm; CRW rate 12.00 ppm): 0%; mortality at 24 ppm (corn rootworm): 0%
11 | Fc1cccc2c(OCCCc3cccc(C(F)(F)F)c3)ccnc12 [Example 294, 8-fluoro-4-[3-[3-(trifluoromethyl)phenyl]propoxy]quinoline] | – | – | – | – | – | – | – | – | – | – | – | pest or weed control at 400 ppm [1]: 0 to 19%; pest or weed control at 400 ppm [2]: 0 to 19%; pest or weed control at 400 ppm [3]: 0 to 19%; pest or weed control at 400 ppm [4]: 0 to 19%; pest or weed control at 400 ppm [5]: 0 to 19%; mortality at 200 ppm [8, 11]: 0%; mortality at 400 ppm ([8]; foliar, foliar spray on squash): 0%; mortality at 200 ppm [9, 11]: 0%; mortality at 400 ppm ([9]; foliar, foliar spray on squash): 0%; mortality at 200 ppm [10, 11]: 0%; mortality at 400 ppm ([10]; foliar, foliar spray on squash): 0%; mortality at 12 ppm (corn rootworm; CRW rate 12.00 ppm): 0%; mortality at 24 ppm (corn rootworm): 0%
12 | Fc1cccc2c(OC3CCCCC3c3ccccc3)ccnc12 (stereo not drawn) [Example 295, 8-fluoro-4-(2-phenylcyclohexyloxy)quinoline] | – | – | – | – | – | – | – | – | – | – | – | pest or weed control at 400 ppm [1]: 20 to 89%; pest or weed control at 400 ppm [2]: 20 to 89%; pest or weed control at 400 ppm [3]: 20 to 89%; pest or weed control at 400 ppm [4]: 0 to 19%; pest or weed control at 400 ppm [5]: 90 to 100%; mortality at 200 ppm [8, 11]: 0%; mortality at 400 ppm ([8]; foliar, foliar spray on squash): 0%; mortality at 200 ppm [9, 11]: 0%; mortality at 400 ppm ([9]; foliar, foliar spray on squash): 0%; mortality at 200 ppm [10, 11]: 0%; mortality at 400 ppm ([10]; foliar, foliar spray on squash): 0%; mortality at 12 ppm (corn rootworm; CRW rate 12.00 ppm): 0%; mortality at 24 ppm (corn rootworm): 0%
